Experimental data as given in ChEMBL document CHEMBL1201862, “PubChem BioAssay data set” (2004).
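Values below derive from 48-hour exposures of cells grown in 96-well plates, with endpoints linearly interpolated between the two concentrations bracketing the appropriate inhibition level. GI50 is the concentration that inhibits growth by half.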 Activity calls are given as the source filed them. Rule as the data show it: active = GI50 up to about 1.1 µM and inactive = higher.

Key:
Assay in all cases: inhibition of tumour cell growth, NCI panel, 48 h
[1] = tested on: KM12
[2] = tested on: T47D
[3] = tested on: SNB-75
[4] = tested on: DU-145
[5] = tested on: CCRF-CEM
[6] = tested on: SK-MEL-2
[7] = tested on: SNB-19
[8] = tested on: HCC 2998
[9] = tested on: SK-MEL-28
[10] = tested on: NCI-H226
[11] = tested on: OVCAR-3
[12] = tested on: MDA-MB-435
[13] = tested on: SF-268
[14] = tested on: MOLT-4
[15] = tested on: SF-295
[16] = tested on: 786-0
[17] = tested on: HOP-92
[18] = tested on: UO-31
[19] = tested on: M14
[20] = tested on: TK-10

Measured: GI50

O=C(Nc1cccc(Cl)c1)Nn1cnnc1
inactive: [1] > 100 µM | [2] > 100 µM | [3] > 100 µM | [4] > 100 µM | [5] > 100 µM | [6] > 100 µM | [7] > 100 µM | [8] > 100 µM | [9] > 100 µM | [10] > 100 µM | [11] > 100 µM | [12] > 100 µM | [13] > 100 µM | [14] > 100 µM | [15] > 100 µM | [16] > 100 µM | [17] > 100 µM | [18] > 100 µM | [19] > 100 µM | [20] > 100 µM

Cc1c(-c2nc(N)nc(C3CC3)c2C)nc(N)nc1C1CC1
inactive: [1] > 100 µM | [2] > 100 µM | [3] > 100 µM | [4] > 100 µM | [5] > 100 µM | [6] > 100 µM | [7] > 100 µM | [8] > 100 µM | [9] > 100 µM | [10] > 100 µM | [11] > 100 µM | [12] > 100 µM | [13] > 100 µM | [14] > 100 µM | [15] > 100 µM | [16] > 100 µM | [17] > 100 µM | [18] > 100 µM | [19] > 100 µM | [20] > 100 µM

COc1ccc(SCc2cc(OC)ccc2OC)cc1
inactive: [1] 4.23 µM | [2] 25.5 µM | [3] 11.1 µM | [4] 44.4 µM | [5] 17.5 µM | [6] 8.59 µM | [7] 34 µM | [8] 9.77 µM | [9] 64.3 µM | [10] 25.3 µM | [11] > 40.6 µM | [12] 2.75 µM | [13] > 56.6 µM | [14] 8.24 µM | [15] 32.2 µM | [16] > 85.5 µM | [17] 13.5 µM | [18] 27.6 µM | [19] 57.5 µM | [20] > 93.3 µM

CC(=O)OC[C@@]1(C)[C@@H]2[C@@H]3[C@@]4(CO[C@]3(C)C(=O)[C@@]3(O)C[C@H](C)[C@H](OC(C)=O)[C@@H]3[C@H]4OC(C)=O)[C@H](OC(=O)c3ccccc3)C[C@@H]21
inactive: [1] > 100 µM | [2] > 100 µM | [3] > 100 µM | [4] > 100 µM | [5] > 100 µM | [6] > 100 µM | [7] > 100 µM | [8] > 100 µM | [9] > 100 µM | [10] > 100 µM | [11] > 100 µM | [12] > 100 µM | [13] > 100 µM | [14] > 100 µM | [15] > 100 µM | [16] > 100 µM | [17] > 100 µM | [18] > 100 µM | [19] > 100 µM | [20] > 100 µM

Cn1c(=O)c2ccccc2c2ccccc21
inactive: [1] 72.9 µM | [2] 57.8 µM | [3] 44.9 µM | [4] 47.4 µM | [5] 66.5 µM | [6] 89.1 µM | [7] 64 µM | [8] 56.8 µM | [9] 85.5 µM | [10] 32.3 µM | [11] 52.7 µM | [12] 56.8 µM | [13] 40.6 µM | [15] 48.4 µM | [16] 45.6 µM | [17] 48.3 µM | [18] 42.4 µM | [19] 49.7 µM | [20] 34.1 µM

CCCCCCCCCCCCC1N=C(N)N2CCCC2=C1C(=O)OC (centres undefined)
inactive: [1] 1.98 µM | [2] 1.69 µM | [3] 1.54 µM | [4] 8.07 µM | [5] 1.61 µM | [6] 2.32 µM | [7] 1.8 µM | [8] 1.84 µM | [9] 1.69 µM | [10] 19.1 µM | [11] 2.14 µM | [12] 1.86 µM | [13] 3.44 µM | [14] 1.47 µM | [15] 1.78 µM | [16] 1.74 µM | [17] 4.35 µM | [18] 8.26 µM | [19] 1.73 µM | [20] 7.62 µM

O=[N+]([O-])c1ccc2nc(O)n[n+]([O-])c2c1
inactive: [1] > 100 µM | [2] > 100 µM | [3] > 100 µM | [4] > 100 µM | [5] > 100 µM | [6] > 100 µM | [7] > 100 µM | [8] > 100 µM | [9] > 100 µM | [10] > 100 µM | [11] > 100 µM | [12] > 100 µM | [13] > 100 µM | [14] > 100 µM | [15] > 100 µM | [16] > 100 µM | [17] > 100 µM | [18] > 100 µM | [19] > 100 µM | [20] > 100 µM
